Test results reported in patent US7015251B1 (priority 1999, dated 2006).
Values after ≈ are worked out from the molar mass of the structure shown. “Also recorded” adds a separate entry of the source.

What was measured:
[1] = system: Tu138 cells; conditions: for Tumor Size (mm^2) at Week 5 / reduction in tumor growth / tumor size vs vehicle control: paclitaxel 120 μg and/or ceramide 500 μg in cremophore; for Tumor Size (mm^2) at Week 5: s.c. near tumor thrice weekly from day 4 for 5 weeks; for reduction in tumor growth / tumor size vs vehicle control: s.c., week 5 (Table 3)
Description: The vehicle control consisted of cremophore only at the concentration utilized in the combination treatment.
In a separate experiment nude mice were implanted with 1−2×10^6 Tu138 cells. […] The vehicle control consisted of cremophore only at the concentration utilized in the combination treatment.

[2] = system: Jurkat cells; test: Jurkat cell proliferation assay (3H-thymidine uptake); assay type: cell-based, human
Description: Cell Proliferation Assays. […] DNA synthesis was assessed by the addition of ^3H-thymidine (1 μCi/well; specific activity—6.7 Ci/mmol; ICN Pharmaceuticals, Costa Mesa, Calif.) uptake 24 hours before the end of the 72 hour growth period at a final concentration of 1 μCi/well.

[3] = system: PC-3; test: MTT dye assay at 72 hrs, PC-3; assay type: cell-based, human
[4] = system: tumor cell lines; test: MTT dye assay at 72 hrs, tumor cell lines tested (ID50); assay type: cell-based, human
[5] = system: Tu138 tumor; test: Tu138 tumor in nude mice, intraperitoneal treatment; conditions: paclitaxel 120 μg and/or ceramide 500 μg, within 4 weeks of administration
[6] = system: Jurkat cells; test: Jurkat cell cycle analysis (propidium iodide, FACScan); assay type: cell-based, human; conditions: 24 hours
Description: Cell Cycle Analysis. […] Pie graphs (FIGS. 3A–F) were generated and normalized to a control value of 100%.

[7] = system: Jurkat cells; test: Jurkat TUNEL assay for apoptosis; assay type: cell-based, human; conditions: 48 hours
Description: Terminal deoxynucleotide transferase (TdT) mediated deoxyuridine triphosphate (dUTP) nick-end labeling (TUNEL) assay. […] At 24 and 48 hours, DNA strand breaks were labeled with TUNEL assay (In Situ Cell Death Detection Kit, Fluorescein; Boehringer Mannheim, Indianapolis, Ind.), and cellular apoptosis was measured by flow cytometry.

[8] = system: Tu138 cells; test: Tu138 TUNEL assay for apoptosis; assay type: cell-based, human
Description: (§1) At the end of either 24 or 48 hours, cells were trypsinized and washed with the culture medium. For cell cycle measurements, cells were mixed with 0.5 ml of 0.1% propidium iodide solution (New Concepts Scientific Ltd. ON) containing 0.1% sodium citrate and 0.1% NP-40. RNase (1 μg) was added to each sample and cells were incubated at 4° C. for 30 minutes. At least 1×10^4 cells were acquired on a precalibrated FACScan (Beckton Dickinson, Calif.) flow cytometer. For precalibration “DNA QC” (Becton Dickinson, Calif.) kit was utilized. The acquired cells were then subjected to cell cycle analysis by the use of “Modfit LT” software (Beckton Dickinson, Calif.). For measurements of apoptosis, In Situ Cell Death Detection Kit (Boehringer Manheim, Ind.) followed by flow cytometry analysis was utilized.

[9] = system: TU138; test: MTT dye assay at 72 hrs, TU138; assay type: cell-based, human
[10] = system: LnCap; test: MTT dye assay at 72 hrs, LnCap; assay type: cell-based, human
[11] = system: HT29; test: MTT dye assay at 72 hrs, HT29; assay type: cell-based, human
[12] = system: RWP-2; test: MTT dye assay at 72 hrs, RWP-2; assay type: cell-based, human
[13] = system: Tu138 cells; test: Tu138 cell cycle measurements (flow cytometry); assay type: cell-based, human; conditions: for effect on cell cycle progression: ceramide 25 μg/ml alone, 24 or 48 hours, n=4; for cells blocked in the G2-M phase: paclitaxel 600 ng/ml
Description: as §1

[14] = system: Jurkat cells; test: Jurkat histologic evaluation (Wright's stain); assay type: cell-based, human; conditions: 48 hours
Description: Histologic Evaluation. […] Wright's stains of all slides were performed using an automated Hemastainer (Geometric Data, Wayne, Pa.). Slides were analyzed microscopically, photographed (Olympus BH 2, Tokyo, Japan) at 100, 200, and 400 power, and evaluated for morphological changes.

[15] = system: Tu138 cells; test: Tu138 MTT dye assay (cytotoxicity, isobologram); conditions: for cytotoxicity: 3 days of culture; for cell cytotoxicity (time kinetics): ceramide 25 μg/ml alone; for ED50 (cytotoxicity, MTT): n=6, 3 days
Description: Tu138, an adherent squamous carcinoma cell line of the head and neck was established at U T M D Anderson Cancer Center, Houston, Tex. (20, 21) and was generously provided by Dr. Gary Clayman's laboratory. Tu138 cells were maintained routinely in T-75 culture flasks (Falcon, Inc., NJ) at a plating cell density of 0.1×10^6 per 75 sq. cm. surface area in complete D-MEM/F-12 culture medium (10 ml) containing 10% fetal bovine serum (FBS, Atlanta Biologicals, Ga.), 2 mM glutamine (Gibco, NY), 50 units/mL penicillin, […] streptomycin (Gibco, NY) and 20 mM Hepes (Sigma, MO) in a 5% CO2 atmosphere at 37° C. Tu138 cells were replenished with fresh complete culture medium twice weekly until confluence.
At the indicated times (24 to 72 hours), cells were subjected to (a) tetrazolium-based dye assay for cell survival measurements, (b) flow cytometry analysis for cell cycle progression and (c) measurements of apoptosis by TUNEL assay.
(22). At the end of an incubation period of 4 hours, culture plates were centrifuged at 300 g for 2 minutes.

[16] = system: Jurkat; test: MTT dye assay at 72 hrs, Jurkat; assay type: cell-based, human
[17] = system: Tu138 cell-tumor; test: Tu138 tumor in nude mice, subcutaneous treatment near tumor site
Description: To corroborate in vitro findings Tu138 cells were planted subcutaneously on nude mice. […] Tumor size was measured once a week. All groups of mice were sacrificed on day 45 and excised tumors were weighed.

[18] = system: recurrent breast cancer; conditions: single agent, cited from earlier work
[19] = system: MCF-7; test: MCF-7 cell cycle progression; assay type: cell-based, human
[20] = Homo sapiens, read-out: % Growth Inhibition
[21] = n=25, 250 mg/m^2, 24 hour infusion every 21 day interval

For CCCCCCCCCCCCC/C=C/[C@@H](O)[C@H](CO)NC(=O)CCCCC [Ceramide, N-hexanoyl-D-sphingosine], the toxicity ([1]; ceramide delivered in cremophore, nude mice) was “no toxicity”, the “Tumor Size (mm^2) at Week 5” value [1] was 109.5 ± 14.1 mm^2 and the “reduction in tumor growth / tumor size vs vehicle control” value [1] was 44.7%. For the same compound, the “[3H]thymidine uptake counts ± SD” value ([2]; Ceramide 25 μg/ml, Experiment 1) was 378245 ± 28689 cpm, the “[3H]thymidine uptake counts ± SD” value ([2]; Ceramide 25 μg/ml, Experiment 2) was 415740 ± 6168 cpm and the “[3H]thymidine uptake counts ± SD” value ([2]; Ceramide 25 μg/ml, Experiment 3) was 301993 ± 67599 cpm. For the same compound, the “[3H]thymidine uptake counts ± SD” value ([2]; Ceramide 25 μg/ml, Experiment 4) was 259230 ± 54914 cpm, the “[3H]thymidine uptake counts ± SD” value ([2]; Ceramide 25 μg/ml, Experiment 5) was 189052 ± 3534 cpm and the growth inhibition ([2]; ceramide added alone, all test concentrations (0 to 50 μg/ml), 10% fetal bovine serum) was no more than 6%. The ceramide-mediated growth inhibition ([2]; low serum (1%)) was greater than 99%, the “% Growth Inhibition” value ([3]; CERAMIDE (25 μg/nl) alone) was 8% and the “calculated ID50 (cytotoxicity)” value ([4]; ceramide, approximately) was 30.0 to 40.0 µg/mL. The “tumor size / tumor burden reduction in comparison to control (vehicle)” value [5] was “no significant effect”, the cell cycle pattern ([6]; ceramide treatment, 10% fetal bovine serum) was “did not differ from the non-ceramide-exposed control” and the “apoptosis (TUNEL)” value ([7]; 12.5 μg/ml of ceramide) was 0.41%. The “apoptosis (TUNEL)” value ([7]; 25 μg/ml of ceramide) was 0.33%, the “apoptosis (TUNEL)” value ([8]; ceramide 25 μg/ml alone, 24 hours) was 9.7% and the “apoptosis (TUNEL)” value ([8]; ceramide 25 μg/ml alone, 48 hours) was 13.6%. The “% Growth Inhibition” value ([9]; CERAMIDE (25 μg/nl) alone, TU138) was 28%, the “% Growth Inhibition” value ([10]; CERAMIDE (25 μg/nl) alone, LnCap) was 25% and the “% Growth Inhibition” value ([11]; CERAMIDE (25 μg/nl) alone, HT29) was 61%. For the same compound, the “% Growth Inhibition” value ([12]; CERAMIDE (25 μg/nl) alone, RWP-2) was 6%, the “effect on cell cycle progression” value [13] was “did not significantly affect either G0–G1 or G2-M phase” and the “effect on cell cycle progression” value ([13]; listed as ceramide) was “no significant effect”. The “morphological changes (Wright's stain)” value ([14]; ceramide 25 μg/ml, 10% serum) was “morphologically indistinguishable from control cells”, the cytotoxicity ([15]; ceramide 12.5 μg/ml) was 19% and the “cell cytotoxicity (time kinetics)” value ([15]; 24 hours) was 32.7%. The “cell cytotoxicity (time kinetics)” value ([15]; 72 hours) was 54.5%, the cytotoxicity ([15]; ceramide 25 μg/ml) was 46% and the “ED50 (cytotoxicity, MTT)” value ([15]; ceramide alone) was 22 ± 5 µg/mL (≈ 55.3 µM). The “% Growth Inhibition” value ([16]; CERAMIDE (25 μg/nl) alone) was 8%, the tumor weight ([17]; ceramide alone 500 μg/0.2 mL s.c. thrice weekly, excised day 45) was “substantial reduction in tumor weight” and the tumor size ([17]; ceramide alone 500 μg/0.2 mL s.c. thrice weekly, week 5) was “slight decrease in tumor size”.
With CC(=O)O[C@H]1C(=O)[C@@]2(C)[C@H]([C@H](OC(=O)c3ccccc3)[C@]3(O)C[C@H](OC(=O)[C@H](O)[C@@H](NC(=O)c4ccccc4)c4ccccc4)C(C)=C1C3(C)C)[C@]1(OC(C)=O)CO[C@@H]1C[C@@H]2O [Paclitaxel] the “Tumor Size (mm^2) at Week 5” value [1] was 176.0 ± 90.3 mm^2, the “reduction in tumor growth / tumor size vs vehicle control” value [1] was 11.1% and the “concentrations that effectively blocked thymidine incorporation” value ([2]; 10% fetal bovine serum) was “higher than 0.06 ng/ml”. For the same compound, the inhibition at 0.0006 µg/mL ([2]; Homo sapiens, Jurkat, read-out: growth inhibition) was 56.5%, the “[3H]thymidine uptake counts ± SD” value ([2]; Taxol 0.6 ng/ml, Experiment 1) was 52675 ± 7478 cpm and the “[3H]thymidine uptake counts ± SD” value ([2]; Taxol 0.6 ng/ml, Experiment 2) was 95563 ± 6427 cpm. For the same compound, the “[3H]thymidine uptake counts ± SD” value ([2]; Taxol 0.6 ng/ml, Experiment 3) was 22771 ± 5113 cpm, the “[3H]thymidine uptake counts ± SD” value ([2]; Taxol 0.6 ng/ml, Experiment 4) was 89621 ± 17579 cpm and the “[3H]thymidine uptake counts ± SD” value ([2]; Taxol 0.6 ng/ml, Experiment 5) was 98694 ± 32045 cpm. The “[3H]thymidine uptake counts ± SD” value ([2]; Taxol 6.0 ng/ml, Experiment 1) was 16592 ± 782 cpm, the “[3H]thymidine uptake counts ± SD” value ([2]; Taxol 6.0 ng/ml, Experiment 2) was 33443 ± 17976 cpm and the “[3H]thymidine uptake counts ± SD” value ([2]; Taxol 6.0 ng/ml, Experiment 3) was 13400 ± 849 cpm. For the same compound, the “[3H]thymidine uptake counts ± SD” value ([2]; Taxol 6.0 ng/ml, Experiment 4) was 35466 ± 7576 cpm, the “[3H]thymidine uptake counts ± SD” value ([2]; Taxol 6.0 ng/ml, Experiment 5) was 10295 ± 353 cpm and the “ED50 (cell growth inhibition)” value ([2]; paclitaxel alone, n=5, 3-day exposure assay) was “approximately 0.5 ng/ml”. The “effect of serum level on growth inhibition” value ([2]; paclitaxel alone, serum 10% to 1%) was “unaffected by variation of serum levels”, the inhibition at 0.6 µg/mL [3, 20] was 16% and the “ID50 (cytotoxicity)” value ([4]; paclitaxel, most tumor cell lines tested) was 0.006 to 0.06 µg/mL. The “tumor size / tumor burden reduction in comparison to control (vehicle)” value [5] was 29%, the dose related toxicity ([18]; 250 mg/m^2) was “severe” and the complete response rate [18, 21] was 12%. The partial response rate [18, 21] was 44%, the “hypodiploid (sub-G1) cell population” value ([6]; 0.6 and 6.0 ng/ml paclitaxel each) was “approximately 25%” and the “cell population in S phase” value ([6]; paclitaxel 0.6 ng/ml alone) was 31.8%. For the same compound, the “decrease of cells in the G0–G1 phase” value ([6]; paclitaxel 0.6 ng/ml alone) was 13.3%, the “total cell population in the G2-M phase” value ([6]; paclitaxel 0.6 ng/ml alone) was 22.2% and the “cell population in S phase” value ([6]; paclitaxel 6.0 ng/ml alone) was 27%. The “decrease of cells in the G0–G1 phase” value ([6]; paclitaxel 6.0 ng/ml alone) was 23.5%, the “total cell population in the G2-M phase” value ([6]; paclitaxel 6.0 ng/ml alone) was 38.2% and the “increase in the G2-M cell population vs untreated control” value ([6]; paclitaxel 0.6 or 6.0 ng/ml alone) was 2–3 fold. The “apoptosis (TUNEL)” value ([7]; 0.6 ng/ml of paclitaxel) was 19.6%, the “apoptosis (TUNEL)” value ([8]; paclitaxel 600 ng/ml alone, 24 hours) was 18.4% and the “apoptosis (TUNEL)” value ([8]; paclitaxel 600 ng/ml alone, 48 hours) was 54.8%. The “number of cells in G2/M phase” value ([19]; higher than ID50 paclitaxel concentrations) was 38%, the “cells blocked in G2/M phase of the cell cycle” value ([19]; lower than ID50 paclitaxel concentrations (0.6–6.0 ng/ml)) was “greater than 55%” and the inhibition at 0.6 µg/mL [9, 20] was 10%. The inhibition at 0.6 µg/mL ([10]; Homo sapiens, LNCaP, read-out: % Growth Inhibition) was 13%, the inhibition at 0.6 µg/mL ([11]; Homo sapiens, HT-29, read-out: % Growth Inhibition) was 16% and the inhibition at 0.6 µg/mL [12, 20] was 2%. The “cells blocked in the G2-M phase” value ([13]; 24 hours) was 61.8%, the “cells blocked in the G2-M phase” value ([13]; 48 hours) was 58.2% and the “morphological changes (Wright's stain)” value ([14]; 0.6 and 6.0 ng/ml of paclitaxel alone) was “apoptotic bodies were noted amid cell shrinkage and nuclear and membrane blebbing”. For the same compound, the “ED50 (cytotoxicity, MTT)” value ([15]; paclitaxel alone) was 1.92 ± 1.2 µg/mL (≈ 2.25 µM), the inhibition at 0.6 µg/mL [16, 20] was 55% and the “tumor growth compared with control” value ([17]; paclitaxel alone 120 μg/0.1 mL s.c. thrice weekly) was “grew aggressively in control and paclitaxel treated mice almost equally; also recorded: equivalent growth”.
